Data from US12357645B2, “Drug combination for treatment of gastric cancer” (priority 2023, dated 2025).

Legend:
[1] = system: advanced gastric cancer (AGC); assay: Phase 1 study of minnelide prodrug alone or with paclitaxel in advanced gastric cancer (NCT 05566834): antitumor activity (RECIST v1.1; BOR, ORR, DCR, PFS, OS); assay type: in vivo, human
Method: Target Lesions. All measurable lesions up to a maximum of two lesions per organ and five lesions in total, representative of all involved organs, were identified as target lesions and recorded and measured at baseline. Target lesions were selected on the basis of their size (lesions with the longest diameter) and were representative of all involved organs, as well as their suitability for reproducible repeated measurements. All measurements were recorded using calipers if clinically assessed.
A sum of the diameters (longest for non-nodal lesions, short axis for nodal lesions) for all target lesions were calculated and reported as the baseline sum diameters, which were used as a reference to further characterize any objective tumor regression in the measurable dimension of the disease. If lymph nodes were included in the sum, only the short axis contributed.
Study design. This was an open-label, nonrandomized, phase 1 study conducted at Samsung Medical Center (SMC) in Korea. The study consisted of three regimens: Monotherapy with minnelide prodrug (Regimen A) and Combination therapy (minnelide prodrug plus paclitaxel), which was further divided into Regimen B and C.
Patients. Adult (≥20 years of age) Korean patients with histologically confirmed advanced-unresectable or metastatic gastric or gastro-esophageal junction adenocarcinoma, who had failed initial standard therapy or for whom no standard treatment was available, were eligible to participate in the study, regardless of HER2 status. Study treatment was discontinued if the patient experienced radiological progressive disease (PD) per Response Evaluation Criteria in Solid Tumors version 1.1 (RECIST v1.1) as assessed by the investigator, clinical progression as assessed by the investigator, or developed unacceptable toxicity.
Treatments. In Regimen A, 3-5 patients were treated at escalating doses of minnelide prodrug alone to determine the maximum tolerated dose (MTD). Minnelide prodrug was administered per oral (PO) once daily for 21 days followed by a 7-day rest period, starting at 1 mg, and escalating to 1.25 mg, and 1.5 mg. One cycle was equal to 28 days and minnelide prodrug was given with the patient in a fasting state. In Regimen B, the same dosing scheme was used for minnelide prodrug 0.25 mg PO in combination with paclitaxel intravenously on days 1, 8 and 15 (Q4W), starting at 60 mg/m^2, and escalating to 80 mg/m^2. In Regimen C, patients were treated with paclitaxel 80 mg/m^2 given intravenously on days 1, 8 and 15 (Q4W) in combination with minnelide prodrug PO once daily on days 1 to 5, 8 to 12 and 15 to 19, starting at 0.5 mg, escalating to 0.75 mg, 1.0 mg, and 1.25 mg. Dose-limiting toxicities (DLTs) were assessed during cycle 1. Treatment continued until disease progression, death, unacceptable toxicity, or patient or investigator decision to discontinue.
Outcomes. In this phase 1 study, the primary objective was to determine the maximum tolerated dose (MTD) and the dose limiting toxicities (DLT) of minnelide prodrug when given alone or in combination with paclitaxel and to establish recommended phase 2 dose (RP2D) of single-agent minnelide prodrug and in combination with paclitaxel every 4 weeks. Secondary objectives were to assess any evidence of antitumor activity of minnelide prodrug alone and in combination with paclitaxel by objective radiographic assessment. Antitumor activity was assessed by objective response rate (ORR). Disease control rate (DCR), duration of response (DOR), progression-free survival (PFS) and overall survival (OS) analysis were performed.
Assessment. Adverse events were graded using National Cancer Institute Common Terminology Criteria for Adverse Events (NCI CTCAE), version 4.03. Tumor assessments were performed after cycles 2, 4, 6, and 8, and every 4 cycles thereafter, or as indicated. Response was determined by investigators using RECIST criteria, version 1.1. […]

[2] = system: pancreatic tumor cell lines; assay: Viability of pancreatic tumor cell lines in vitro (activated with alkaline phosphatase); assay type: cell-based; conditions: activated by concurrent incubation with alkaline phosphatase
[3] = system: patients with Advanced Solid Tumors; assay type: in vivo, human
Source text: Oral Minnelide Prodrug. A Phase 1, Multi-Center, Open-Label, Dose-Escalation, Safety, Pharmacokinetic, and Pharmacodynamic Study of Minnelide™ Capsules given alone or in combination with protein-bound paclitaxel in patients with Advanced Solid Tumors. A total of 44 patients were enrolled and dosed in the Phase 1 study, 32 in the monotherapy regimen, and 12 in the combination regimen. The primary reason for discontinuation of treatment has been disease progression. There were 9 deaths in the study, 7 of which were assessed as not related to minnelide prodrug and were after discontinuation of the study drug. One patient on the 1.25 mg monotherapy regimen passed away from G5 related sepsis.

[4] = system: gastric cancer cell lines MKN28 and MKN45; conditions: inhibits Sp1 to decrease HSP70; cited from earlier work
dogs = assay: Definitive toxicity studies in dogs (intravenous, oral gavage); assay type: in vivo
Method: As clinical development of minnelide prodrug was initiated using an intravenous drug product, IND-enabling toxicology studies were conducted in both rats and dogs using the intravenous route of administration. The results of these studies supported first-in-human clinical trials involving intravenous administration of minnelide prodrug to patients with advanced solid tumors. To support the clinical development of a new solid oral dosage form of minnelide prodrug (capsules), exploratory and definitive toxicity studies were conducted with minnelide prodrug in solution via oral gavage in dogs. Taken together, the results of the intravenous and oral toxicity studies conducted with minnelide prodrug indicate that the target organ profile of minnelide prodrug is consistent in both species (rats and dogs) when administered by either route of administration (intravenous or oral).

gastric cancer = conditions: alone or in combination, when properly dosed
Source text: Gastric cancer is the most prevalent cancer in South Korea […]. […] Herein, we have evaluated efficacy of minnelide prodrug in combination with paclitaxel in a subcutaneous mouse model of gastric cancer and in a human clinical trial.

[5] = Regimen A (PO daily x21 d/28 d), n = 11
[6] = Regimen A, nine patients who completed at least 1 cycle with measurable lesions
[7] = Regimen A, Kaplan-Meier estimate
[8] = 44 patients, alone or with protein-bound paclitaxel

CC(C)[C@]12O[C@H]1[C@@H]1O[C@]13[C@]1(O[C@H]1C[C@H]1C4=C(CC[C@@]13C)C(=O)OC4)[C@@H]2OCOP(=O)([O-])[O-].[Na+].[Na+] [minnelide prodrug, disodium; [(1S,2S,4S,5S,7S,8R,9R,11S, 13S)-1-methyl-17-oxo-7-propan-2-yl-3,6,10,16-tetraoxaheptacyclo [11.7.0.0^2,4.0^2,9.0^5,7.0^9,11.0^14,18]icos-14 (18)-en-8-yl]oxymethyl phosphate]
Duration of OS, Range ([1]; Regimen A): 1.6-11.1 months
Duration of PFS, Range ([1]; Regimen A): 0.7-5.4 months
PFS events, n (%) ([1]; Regimen A): 9 n (%)
BOR NE, number of patients [1, 5]: 2
BOR PD, number of patients [1, 5]: 5
BOR SD, number of patients [1, 5]: Four
DCR, n (%) [1, 5]: 4 (36.4) n (%)
ORR, n (%) [1, 5]: 0 n (%)
BOR SD, number of patients ([1]; Regimen A (PO daily x21 d/28 d), n = 11, listed as Minnelide prodrug): 4
BOR PD, share of patients [1, 6]: 55.6%
BOR SD, share of patients [1, 6]: 44.4%
DCR [1, 6]: 44.4%
Duration of OS, Median [1, 7]: 5.3 months
Duration of PFS, Median [1, 7]: 1.6 months
duration of stable disease (one patient) ([1]; single agent, patient had failed four lines of therapy including immunotherapy): 5.4 months
potency in decreasing viability [2]: as potent as triptolide
Serious Adverse Events related to the study drug [3, 8]: 4
Serious Adverse Events, number [3, 8]: 28
patients who discontinued study drug due to TEAE [3, 8]: Four
patients with Serious Adverse Events [3, 8]: 17
deaths in the study ([3]; 44 patients: 32 monotherapy, 12 combination): 9
deaths assessed as not related to minnelide prodrug ([3]; after discontinuation of the study drug): 7
patients with at least 1 AE considered related to the study drug ([3]; in vivo): Twenty-seven
SAE cases considered dose limiting toxicities (DLTs) ([3]; two events of sepsis, one influenza A pneumonia): Three
cell death [4]: induce cell death
histopathology of reproductive tract tissues, males and females (dogs; definitive toxicity studies, dogs): adverse, largely irreversible histopathological effects
histopathology of the gastrointestinal tract (dogs; oral gavage for up to 28 consecutive days): No adverse histopathological effects
toxic effects (gastric cancer): no significant toxic effects
